Where a name gives a salt, the structure may show the parent alone.
Legend:
activated human C1 = activated human C1 (Homo sapiens, UniProt P09871); assay: Test Code 026 (C1 inhibitor): protection of fluid phase human C2 from activated human C1 in the presence of C4; type: biochemical; conditions: serial twofold dilution assay; higher well number indicates higher activity
complement = assay: Guinea Pig Intraperitoneal Test (GPIP): serum complement activity after i.p. dosing; type: in vivo; conditions: 200 mg/kg i.p.; for In vivo Activity Guinea Pigs Intraperitoneal % Lowering, 30 minutes: blood 30 minutes after injection; for In vivo Activity Guinea Pigs Intraperitoneal % Lowering, 60 minutes: blood 60 minutes after injection; for In vivo Activity Guinea Pigs Intraperitoneal % Lowering, 120 minutes: blood 120 minutes after injection
Experimental: (§1) An active inhibitor protects C2 from C1 and C4; (ii) Test Code 036 (C-Shunt inhibitor)--In this test human erythrocytes rendered fragile are lysed in autologous serum via the shunt pathway activated by cobra venom factor in the presence of appropriate dilutions of the test compound. Inhibition of the shunt pathway results in failure of lysis; (iii) Cap 50 Test--Here, appropriate amounts of the test compound are added to a pool of guinea pig serum in vitro, after which the complement level is determined in undiluted serum by the serum capillary tube assay of U.S. Pat. No. 3,876,376. The concentration of compound inhibiting 50% is reported; and (iv) Guinea Pig Intraperitoneal Test (GPIP)--Guinea pigs weighing about 300 g are dosed intraperitoneally (i.p.) with 200 mg/kg of the test compound dissolved in saline and adjusted to pH 7-8. Approximately 0.4 ml blood samples, taken by orbital sinus puncture 30 minutes and one hour after injections, are collected directly into centrifuge tubes; 5 ml blood samples, taken by decapitation 2 hours after inJection, are collected directly into diSPo® beakers. The samples were allowed to clot, centrifuged, and the resultant sera were assayed for complement activity using the capillary complement assay. Percent inhibition is calculated by comparison with simultaneous controls. The results of the GPIP appear in Table I together with results of Test Code 026, 036 and Cap 50.

shunt pathway = assay: Test Code 036 (C-Shunt inhibitor): lysis of fragile human erythrocytes in autologous serum via shunt pathway activated by cobra venom factor; type: cell-based; conditions: serial twofold dilution assay; higher well number indicates higher activity
Experimental: as §1, with “The results of the GPIP appear in Table I together with results of Test Code 026, 036 and Cap 50.” left out

complement system = conditions: literature report; cited from earlier work
[1] = tested on: hereditary angioneurotic edema; conditions: literature report; cited from earlier work

O=C(Nc1cc2c(O)cc(S(=O)(=O)[O-])cc2cc1S(=O)(=O)[O-])Nc1cc2c(O)cc(S(=O)(=O)[O-])cc2cc1S(=O)(=O)[O-].[Na+].[Na+].[Na+].[Na+] [3,3'-Ureylenebis(5-hydroxy-2,7-naphthalenedisulfonic acid), tetrasodium salt]
In vitro Activity C1 026 Wells (activated human C1): +4 Wells | In vivo Activity Guinea Pigs Intraperitoneal % Lowering, 30 minutes (complement): 4% | In vivo Activity Guinea Pigs Intraperitoneal % Lowering, 60 minutes (complement): 1% | In vivo Activity Guinea Pigs Intraperitoneal % Lowering, 120 minutes (complement): 28%

O=C(Nc1cc(S(=O)(=O)[O-])c2cc([N+](=O)[O-])cc(S(=O)(=O)[O-])c2c1)Nc1cc(S(=O)(=O)[O-])c2cc([N+](=O)[O-])cc(S(=O)(=O)[O-])c2c1.[Na+].[Na+].[Na+].[Na+] [3,3'-Ureylenebis(7-nitro-1,5-naphthalenedisulfonic acid), tetrasodium salt]
In vitro Activity C1 026 Wells (activated human C1): +3 Wells

O=C(Nc1cc2ccc(S(=O)(=O)[O-])cc2cc1S(=O)(=O)[O-])Nc1cc2ccc(S(=O)(=O)[O-])cc2cc1S(=O)(=O)[O-].[Na+].[Na+].[Na+].[Na+] [3,3'-Ureylenedi-2,7-naphthalenedisulfonic acid, tetrasodium salt]
In vitro Activity C1 026 Wells (activated human C1): +3 Wells

O=C(Nc1cc(S(=O)(=O)O)cc2cc(S(=O)(=O)O)cc(OS(=O)(=O)c3ccccc3)c12)Nc1cc(S(=O)(=O)O)cc2cc(S(=O)(=O)O)cc(OS(=O)(=O)c3ccccc3)c12 [4,4'-Ureylenebis(5-hydroxy-2,7-naphthalenedisulfonic acid), tetrasodium salt dibenzenesulfonate]
In vitro Activity C1 026 Wells (activated human C1): +3 Wells

O=C(Nc1ccc(S(=O)(=O)[O-])c2ccc(S(=O)(=O)[O-])cc12)Nc1ccc(S(=O)(=O)[O-])c2ccc(S(=O)(=O)[O-])cc12.[Na+].[Na+].[Na+].[Na+] [4,4'-Ureylenedi-1,6-naphthalenedisulfonic acid, tetrasodium salt]
In vitro Activity C1 026 Wells (activated human C1): +3 Wells

O=C(Nc1ccc(S(=O)(=O)[O-])c2ccccc12)Nc1ccc(S(=O)(=O)[O-])c2ccccc12.[Na+].[Na+] [4,4'-Ureylenedi-1-naphthalenesulfonic acid, disodium salt]
In vitro Activity C1 026 Wells (activated human C1): +2 Wells

O=C(Nc1cc(S(=O)(=O)[O-])cc2ccc(S(=O)(=O)[O-])cc12)Nc1cc(S(=O)(=O)[O-])cc2ccc(S(=O)(=O)[O-])cc12.[Na+].[Na+].[Na+].[Na+] [4,4'-Ureylenedi-2,6-naphthalenedisulfonic acid, tetrasodium salt]
In vitro Activity C1 026 Wells (activated human C1): +2 Wells

O=C(Nc1cc(S(=O)(=O)[O-])cc2cc(S(=O)(=O)[O-])ccc12)Nc1cc(S(=O)(=O)[O-])cc2cc(S(=O)(=O)[O-])ccc12.[Na+].[Na+].[Na+].[Na+] [4,4'-Ureylenedi-2,7-naphthalenedisulfonic acid, tetrasodium salt]
In vitro Activity C1 026 Wells (activated human C1): +3 Wells

O=C(Nc1ccc2c(S(=O)(=O)[O-])cc(S(=O)(=O)[O-])cc2c1)Nc1ccc2c(S(=O)(=O)[O-])cc(S(=O)(=O)[O-])cc2c1.[Na+].[Na+].[Na+].[Na+] [6,6'-Ureylenedi-1,3-naphthalenedisulfonic acid, tetrasodium salt]
In vitro Activity C1 026 Wells (activated human C1): +3 Wells

O=C(Nc1ccc2c(O)cc(S(=O)(=O)O)cc2c1)Nc1ccc2c(O)cc(S(=O)(=O)O)cc2c1 [6,6'-ureylenebis(1-hydroxy-3-naphthalenesulfonic acid)]
In vitro Activity C1 026 Wells (activated human C1): +1 Wells

O=C(Nc1cc(S(=O)(=O)[O-])c2cc(S(=O)(=O)[O-])cc(S(=O)(=O)[O-])c2c1)Nc1cc(S(=O)(=O)[O-])c2cc(S(=O)(=O)[O-])cc(S(=O)(=O)[O-])c2c1.[Na+].[Na+].[Na+].[Na+].[Na+].[Na+] [7,7'-Ureylenedi-1,3,5-naphthalenetrisulfonic acid, hexasodium salt]
In vitro Activity C1 026 Wells (activated human C1): +6 Wells | In vitro Activity C-Shunt Inhibition 036 Wells (shunt pathway): +1 Wells

O=C(Nc1ccc2cc(S(=O)(=O)O)cc(O)c2c1)Nc1ccc2cc(S(=O)(=O)O)cc(O)c2c1 [7,7'-ureylenebis(1-hydroxy-3-naphthalenesulfonic acid)]
In vitro Activity C1 026 Wells (activated human C1): +2 Wells

O=S(=O)([O-])c1cc(NC(=S)Nc2cc(S(=O)(=O)[O-])cc3cc(S(=O)(=O)[O-])cc(S(=O)(=O)[O-])c23)c2c(S(=O)(=O)[O-])cc(S(=O)(=O)[O-])cc2c1.[Na+].[Na+].[Na+].[Na+].[Na+].[Na+] [8,8'-(2-Thioureylene)di-1,3,6-naphthalenetrisulfonic acid, hexasodium salt]
In vitro Activity C1 026 Wells (activated human C1): +5 Wells | In vivo Activity Guinea Pigs Intraperitoneal % Lowering, 30 minutes (complement): 41% | In vivo Activity Guinea Pigs Intraperitoneal % Lowering, 60 minutes (complement): 20% | In vivo Activity Guinea Pigs Intraperitoneal % Lowering, 120 minutes (complement): 42%

O=C(Nc1ccc(S(=O)(=O)[O-])c2cc(S(=O)(=O)[O-])cc(S(=O)(=O)[O-])c12)Nc1ccc(S(=O)(=O)[O-])c2cc(S(=O)(=O)[O-])cc(S(=O)(=O)[O-])c12.[Na+].[Na+].[Na+].[Na+].[Na+].[Na+] [8,8'-Ureylenedi-1,3,5-naphthalenetrisulfonic acid, hexasodium salt]
In vivo Activity Guinea Pigs Intraperitoneal % Lowering, 30 minutes (complement): 92% | In vivo Activity Guinea Pigs Intraperitoneal % Lowering, 60 minutes (complement): 92% | In vivo Activity Guinea Pigs Intraperitoneal % Lowering, 120 minutes (complement): 94%

O=C(Nc1cc(S(=O)(=O)[O-])cc2cc(S(=O)(=O)[O-])cc(S(=O)(=O)[O-])c12)Nc1cc(S(=O)(=O)[O-])cc2cc(S(=O)(=O)[O-])cc(S(=O)(=O)[O-])c12.[Na+].[Na+].[Na+].[Na+].[Na+].[Na+] [8,8'-Ureylenedi-1,3,6-naphthalenetrisulfonic acid, hexasodium salt]
In vitro Activity C1 026 Wells (activated human C1): +5 Wells | In vivo Activity Guinea Pigs Intraperitoneal % Lowering, 30 minutes (complement): 25% | In vivo Activity Guinea Pigs Intraperitoneal % Lowering, 60 minutes (complement): 61% | In vivo Activity Guinea Pigs Intraperitoneal % Lowering, 120 minutes (complement): 65%

O=C(Nc1cc(S(=O)(=O)[O-])cc2cccc(S(=O)(=O)[O-])c12)Nc1cc(S(=O)(=O)[O-])cc2cccc(S(=O)(=O)[O-])c12.[Na+].[Na+].[Na+].[Na+] [8,8'-Ureylenedi-1,6-naphthalenedisulfonic acid, tetrasodium salt]
In vitro Activity C1 026 Wells (activated human C1): +3 Wells

Nc1ccc2cc(S(=O)(=O)[O-])cc(O)c2c1N=Nc1ccc(NC(=O)Nc2ccc(N=Nc3c(N)ccc4cc(S(=O)(=O)[O-])cc(O)c34)c(S(=O)(=O)[O-])c2)cc1S(=O)(=O)[O-].[Na+].[Na+].[Na+].[Na+] [chlorazol fast pink, 3,3'-ureylenebis[6-(2-amino-8-hydroxy-6-sulfo-1-naphthylazo)benzenesulfonic acid], tetrasodium salt]
anti-complementary effect (complement system): anti-complementary effect

NCCCCCC(=O)O [epsilon-aminocaproic acid]
treatment of hereditary angioneurotic edema [1]: used with success

NC[C@H]1CC[C@H](C(=O)O)CC1 [tranexamic acid]
treatment of hereditary angioneurotic edema [1]: used with success

heparin
anti-complementary effect (complement system): anti-complementary effect

Source: patent US4599203A, “Multisulfonated naphthalene ureas useful as complement inhibitors” (American Cyanamid Company, priority 1984, dated 1986)
